{"source": "patent US12533444B2", "about": "“Mitigation of peri-implantitis by design and stability of bifunctional peptides with antimicrobial properties” (priority 2019, dated 2026)", "key": {"[1]": {"system": "oral pathogens", "conditions": "against oral pathogens; cited from earlier work"}, "[2]": {"assay": "Peptide film coverage on implant discs after S. mutans challenge", "conditions": "S. mutans challenge for 24 hours, FITC-labeled peptide", "source_text": "(§1) A custom MatLab script was developed to determine the percent surface coverage of fluorescently labeled bifunctional peptides on the implant disc surface. The color fluorescent images were read into MatLab using the imread function. The images were converted to black and white and the total number of black and white pixels quantitated. The number of white pixels corresponding to the fluorescently labeled peptides was divided by the total number of pixels to determine the percent surface coverage.\nStreptococcus mutans bacteria (ATCC 700610) were cultured according to an ATCC protocol. Frozen stocks were streak plated on agar and incubated for 24 hours at 37° C. in atmosphere with 5% CO2. […]\nFollowing the functionalization of titanium discs, they were transferred to a sterile well in a 24-well plate and 400 μL of S. mutans bacteria at a concentration of 10^3 CFU/mL was added to the wells containing the discs and incubated for 24 hours at 37° C. in atmosphere with 5% CO2. […] Experiments were repeated in triplicate and images were recorded at 10× magnification.\nThe binding and antimicrobial domain activities were evaluated by challenging the bifunctional peptide film applied to titanium implant discs with S. mutans bacteria for 24 hours. […]"}, "[3]": {"system": "S. mutans", "assay": "Propidium iodide staining of dead S. mutans bacteria on functionalized implant discs", "type": "cell-based, Streptococcus mutans", "conditions": "discs functionalized 2 minutes at 37° C., S. mutans challenge 24 hours", "description": "Streptococcus mutans bacteria (ATCC 700610) were cultured according to an ATCC protocol. Frozen stocks were streak plated on agar and incubated for 24 hours at 37° C. in atmosphere with 5% CO2. A single bacterial colony was used to inoculate 5 mL of Brain Heart Infusion (BHI) broth in a sterile 50 mL conical tube and incubated overnight in the same conditions. Following incubation, 1 mL of culture was added to 9 mL of fresh media and grown to mid-log phase with a final concentration of 10^5 CFU/mL.\nFollowing the functionalization of titanium discs, they were transferred to a sterile well in a 24-well plate and 400 μL of S. mutans bacteria at a concentration of 10^3 CFU/mL was added to the wells containing the discs and incubated for 24 hours at 37° C. in atmosphere with 5% CO2. Following incubation, discs were imaged with a fluorescent microscope to visualize FTIC-labeled bifunctional peptides on the disc surface after bacterial challenge. The dead bacteria were stained with propidium iodide and imaged using a fluorescent microscope. Experiments were repeated in triplicate and images were recorded at 10× magnification.\nThe antimicrobial functional efficacy of TiBP-AMPA compared to TiBP-GL13K supported the design prediction. […] Representative fluorescent images and quantification of three replicate experiments are depicted in FIGS. 8A and 8B, respectively."}, "[4]": {"assay": "Peptide binding to titanium implant discs (percent surface coverage by fluorescence imaging)", "conditions": "FITC-labeled peptide, up to 6× theoretical footprint concentration, two minutes at 37° C., washed", "description": "Titanium implant disc functionalization with bifunctional peptides was accomplished by incubating 100 μL of a specified fold concentration of the theoretical “footprint” concentration onto clean, sterile discs for different time periods at 37° C. for 2 minutes. Following incubation, the discs were transferred to a sterile well in a 24-well plate containing 500 μL of DI H2O and washed multiple times to remove unbound peptide. The discs were transferred to a clean glass microscope slide for imaging using a fluorescent microscope. All experiments were repeated a minimum of three times and images were recorded at 10× magnification.\nas §1, with “The number of white pixels corresponding to the fluorescently labeled peptides was divided by the total number of pixels to determine the percent surface coverage.” left out\nThe theoretical footprint concentration of each bifunctional peptide with a multiple of the binding concentration up to 6× was determined to result in near 100% surface coverage after incubation with a titanium implant disc for only two minutes at 37° C. […] The fluorescent images were then analyzed using a MATLAB script to determine the percentage of the implant disc covered by the bifunctional peptides. […]"}, "[5]": {"assay": "Serum competition binding assay with BSA on titanium implant discs", "conditions": "presence of 0.01% BSA, 2 minutes at 37° C.", "source_text": "as §1\nPrior to functionalization of sterile titanium implant discs, a solution of BSA and the bifunctional peptide was made in a sterile centrifuge tube. In a sterile 24 well plate, 100 μL of the BSA/bifunctional peptide solution was pipetted onto a titanium implant disc and incubated at 37° C. for 2 minutes. […]\nThe bifunctional peptide film could be applied to a new dental implant prior to implantation and subsequently during recall appointments for treatment to previously placed implants. […] Thus, the ability of the peptide film to functionalize the implant surface in the presence of serum proteins was determined by pre-mixing the peptide with varying concentrations of bovine serum albumin (BSA) followed by incubating the mixture on the titanium disc for 2 minutes at 37° C. […]"}}}
{"sequence": "GKIIKLKASLKLL [GL13K, cationic amphipathic antimicrobial peptide domain]", "values": [{"measurement": "MIC", "setting": "[1]", "value": "low"}]}
{"sequence": "KWKLWKKIEKWGQGIGAVLKWLTTW [AMPA, cationic antimicrobial peptide domain]", "values": [{"measurement": "MIC", "setting": "[1]", "value": "low"}]}
{"sequence": "RPRENRGRERGLGSGGGGKIIKLKASLKLL [TiBP-GL13K, comparative bifunctional peptide: TiBP, GSGGG spacer, GL13K antimicrobial domain]", "values": [{"measurement": "surface coverage after bacterial challenge", "setting": "[2]", "value": 60, "unit": "%"}, {"measurement": "dead bacteria coverage (PI staining)", "setting": "[3]", "value": 10, "unit": "%"}, {"measurement": "surface coverage (initial binding)", "setting": "[4]", "value": 96, "unit": "%"}, {"measurement": "surface coverage in competition with BSA", "setting": "[5]", "value": 73, "unit": "%"}]}
{"sequence": "RPRENRGRERGLGSGGGKWKLWKKIEKWGQGIGAVLKWLTTW [TiBP-AMPA]", "values": [{"measurement": "surface coverage after bacterial challenge", "setting": "[2]", "value": 84, "unit": "%"}, {"measurement": "dead bacteria coverage (PI staining)", "setting": "[3]", "value": 46, "unit": "%"}, {"measurement": "surface coverage (initial binding)", "setting": "[4]", "value": 99, "unit": "%"}, {"measurement": "surface coverage in competition with BSA", "setting": "[5]", "value": 80, "unit": "%"}]}
